The values below come from patent US20200405687A1, “METHODS FOR THE TREATMENT OF INFECTION” (Corbus Pharmaceuticals, Inc., priority 2016, published 2020).

This test relates to UV-killed Escherichia coli. In words: Skin challenge (blister) model, intradermal UV-killed E. coli in healthy volunteers (Example 3). In kind it is in vivo, humans. The following applies: for infiltration of neutrophils at the site of inflammation (blister exudate): 4 h and 10 h. On the procedure:
The ability of administration of a pharmaceutical composition including ajulemic acid to treat infection was assayed in a skin challenge model. A self-resolving acute inflammatory response was triggered by the intradermal injection of UV-killed Escherichia coli into the forearm of healthy volunteers. […] This study was performed to determine whether ajulemic acid promotes the resolution of infection at the site of inflammation, thereby treating that infection.
Cells and exudates were harvested at several time points following injection of UV-killed E. coli by applying negative pressure over the inflamed site.
The study included four experimental groups (n=10 in each group): • 1) Placebo, twice daily for four days • 2) Ajulemic acid, 5 mg, twice daily for four days • 3) Ajulemic acid, 20 mg, twice daily for four days • 4) Prednisone, 15 mg daily for four days
The volunteer (healthy males, 18-50 years) were randomly allocated to one of the above three groups and orally administered the test drug for four consecutive days. On the morning of the fourth day (after intake of the first dose), experimental acute inflammation was elicited by infection with UV-killed E. coli. The drug and the placebo were provided as capsules.
UV killed E. coli (Strain: NCTC 10418, Source: Public Health England, UK) were prepared as follows. E. coli described were grown overnight in Luria Broth (Sigma) at 37° C. The next morning, the bacteria were washed twice in sterile PBS (2500 g, 20 min, 4° C.) and resuspended in a sterile petri dish.
Bacteria were then killed by exposure to an ultraviolet light (UV) source (302 nm, ChemiDoc, trans-UV mode; Bio-Rad laboratories) for 60 min and then washed again in sterile saline. Bacterial counts were determined by optical density (OD600=0.365 equates to […] E. coli/ml). UVKEc were resuspended in a volume of sterile saline to obtain the count of 1.5×10^8/ml, aliquoted into sterile eppendorf tubes and then frozen at −80° C. until used for injections.
After disinfecting and shaving the skin, 1.5×10^7 UVKEc in 100 μl saline were injected intradermally into a marked site on the volar aspect of each forearm. To characterize the treatment of infection using ajulemic acid, each forearm was allotted to one of the predefined time-points namely 4, 8, 14, 24, 48 or 72 hours (h). Thus the effects of intradermal injection of UVKEc were allowed to progress for the duration of the time-point after which a suction blister was raised over the marked injection site, and then aspirated immediately. In summary, volunteer had two injection sites, one on each forearm, and contributed to two time points. On a separate group of volunteers, blister was raised on the naïve skin and treated as the baseline time point. Study time-points were discussed with volunteers before consenting.
Laser Doppler Imager (moor LDI-HIR, Moor Instruments Ltd, Axminster, Devon, UK) was used to quantify the blood flow at the site of infection. At predefined time points after injection of UVKEc, the forearm was placed under the scanner at a fixed distance to scan a fixed area. The scanner emits a laser beam, a portion of which is scattered by red blood cells present at the inflamed area. The scattering causes a change in frequency of the reflected light which is then detected by a photo detector. The velocity and concentration of red blood cells at the site directly affect the Doppler frequency shifts and account for the signal strength measured in arbitrary perfusion units. […] The total blood flow (measured in perfusion units) was calculated as product of number of valid pixels above background signal (Cut-off=300 perfusion units) and the mean blood flow signal over the valid pixels 11, 12.
To obtain the exudate from the site of infection, a 10 mm diameter suction blister was induced directly over the site of injection. […]

Entries after “also recorded” stand apart in the source; their conditions may differ.

Take `CCCCCCC(C)(C)c1cc(O)c2c(c1)OC(C)(C)[C@@H]1CC=C(C(=O)O)C[C@@H]21` [ajulemic acid, (6aR,10aR)-1-hydroxy-6,6-dimethyl-3-(2-methyl-2-octanyl)-6a,7,10,10a-tetrahydro-6H-benzo[c]chromene-9-carboxylic acid]: the “pro-resolving macrophages during the resolution arm of innate immune response” value (5 mg or 20 mg) was “increases pro-resolving macrophages”. The “IL-8 (pro-inflammatory cytokine) levels in inflammatory exudate” value (5 mg or 20 mg BID, 4 hr and 10 hr, multiplex ELISA, listed as Ajulemic acid) is recorded as “reduce”. For the same compound, where the note is “20 mg ajulemic acid group, relative to placebo”, the “time course of neutrophil infiltration at the site of inflammation” value was “neutrophil infiltration is decreased relative to placebo”. In addition, the “rise in C-reactive protein (CRP) levels in serum” value (after UVKEc triggered acute inflammation, multiple time points) is recorded as “does not appear to inhibit the rise in C-reactive protein levels”. Besides, the “infiltration of neutrophils at the site of inflammation (blister exudate)” value runs as follows: (ajulemic acid 5 mg or 20 mg BID, prednisone 15 mg daily, relative to placebo) “decrease in the infiltration of neutrophils”; (ajulemic acid 5 mg or 20 mg BID, prednisone 15 mg daily, relative to placebo, listed as Ajulemic acid) “reduce”. The “levels of endotoxin at the site of injection” value (ajulemic acid 5 mg or 20 mg BID, prednisone 15 mg daily, 4 hr and 10 hr, limulus amoebocyte lysate test) was “decreased levels of endotoxin; also recorded: reduces levels of endotoxin”. The “local vascular blood flow at injection site (laser Doppler)” value (at least 20 mg AJA BID, four days) is listed as “increase in local blood flow”. Further, the vasodilation result (summary of blister model results) is “reduce vasodilation”.
